Blank lines part the entries; values can stand above or below the compound they belong to.
Key:
[1] = format: in vitro ADME, human; conditions: preliminary analysis
[2] = format: in vitro ADME, human; conditions: individual glucosides in RdGrp extract, chlorhexidine rinse
[3] = Stability of cyanidin chloride, PCA and PGA in saliva; format: in vitro ADME, human
[4] = Stability of cyanidin chloride in acidified water; format: physicochemical

Decrease of degradation in saliva after antibacterial treatment [2]: 50%
SMILES: COc1cc(-c2[o+]c3cc(O)cc(O)c3cc2O[C@@H]2O[C@H](CO)[C@@H](O)[C@H](O)[C@H]2O)ccc1O [Pn, Peonidin-3-O-glucoside]

Cyanidin aglycone degraded upon addition to intact saliva ([3]; human, 0 min, 25 nmol/L): > 90%
PCA as share of the degraded CyCl in saliva ([3]; human, 0 min, 25 nmol/mL): 15.3%
PCA as share of the degraded CyCl in saliva ([3]; human, 60 min, 25 nmol/mL): 9.6%
CyCl recovered immediately after addition to acidified water ([4]; 0 min): Greater than 86%
CyCl lost after incubation in acidified water ([4]; 60 min): greater than 88%
SMILES: Oc1cc(O)c2cc(O)c(-c3ccc(O)c(O)c3)[o+]c2c1 [CyCl, cyanidin chloride]

Decrease of degradation in saliva after antibacterial treatment [2]: 10%
SMILES: COc1cc(-c2[o+]c3cc(O)cc(O)c3cc2O[C@@H]2O[C@H](CO)[C@@H](O)[C@H](O)[C@H]2O)cc(O)c1O [Pt-3-glu, Petunidin-3-O-glucoside]

recovery at 60 min, 25 nmol/mL ([3]; human): 90%
SMILES: O=C(O)c1ccc(O)c(O)c1 [PCA, protocatechuic acid]

The next lines start with the compound.

SMILES: OC[C@H]1O[C@@H](Oc2cc3c(O)cc(O)cc3[o+]c2-c2ccc(O)c(O)c2)[C@H](O)[C@@H](O)[C@@H]1O [Cy-3-glu, Cyanidin-3-O-glucoside]
Chalcone glucosides of Cy as share of the original amount incubated in saliva ex vivo [1]: ≤ 30%

SMILES: O=Cc1c(O)cc(O)cc1O [PGA, phloroglucinol aldehyde]
Recovery after incubation in intact saliva ([3]; 25 nmol/mL, 37 °C, 60 min): 43%

SMILES: COc1cc(-c2[o+]c3cc(O)cc(O)c3cc2O[C@@H]2O[C@H](CO)[C@@H](O)[C@H](O)[C@H]2O)cc(OC)c1O [Mv, Malvidin-3-O-glucoside]
Decrease of degradation in saliva after antibacterial treatment [2]: 50%

SMILES: OC[C@H]1O[C@@H](Oc2cc3c(O)cc(O)cc3[o+]c2-c2cc(O)c(O)c(O)c2)[C@H](O)[C@@H](O)[C@@H]1O [Dp, Delphinidin-3-O-glucoside]
Decrease of degradation in saliva after antibacterial treatment [2]: 30%
